Values after ≈ are worked out from the molar mass of the structure shown.
What was measured:
Assay in all cases: Bacterial susceptibility testing (MIC, broth microdilution)
Type in all cases: cell-based
[1] = test system: K. pneumoniae ATCC13883; conditions: Klebsiella pneumoniae, ATCC13883, broth microdilution, cation adjusted Mueller-Hinton Broth, 35° C., 18-24 h; read-out: K. pneumoniae ATCC13883 MIC
Summary of the method: (§1)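 CLSI broth microdilution was run in cation-adjusted Mueller-Hinton broth with an inoculum of 3×10^5–7×10^5 CFU/mL and 2-fold compound dilutions. Plates were incubated in ambient air at 35° C for 18-24 h. MIC was the lowest concentration preventing visible growth (OD600 nm<0.05).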

[2] = test system: E. coli ATCC25922; conditions: Escherichia coli, ATCC25922, broth microdilution, cation adjusted Mueller-Hinton Broth, 35° C., 18-24 h; read-out: E. coli ATCC25922 MIC
Summary of the method: as §1

[3] = test system: P. aeruginosa ATCC27853; conditions: Pseudomonas aeruginosa, ATCC27853, broth microdilution, cation adjusted Mueller-Hinton Broth, 35° C., 18-24 h; read-out: P. aeruginosa ATCC27853 MIC
Summary of the method: as §1

[4] = test system: P. aeruginosa PAO1; conditions: Pseudomonas aeruginosa, PAO1; broth microdilution, cation adjusted Mueller-Hinton Broth, 35° C., 18-24 h; read-out: P. aeruginosa PAO1 MIC
Summary of the method: as §1

## CC1C(Oc2ccc(-c3ccc(C#C[C@@H](CO)n4ccnc4[C@H](C)O)cc3)cc2)CN1CC#N (mixture of isomers) [Compound 99]
[1]
  MIC: 2 µg/mL (≈ 4.38 µM)
[2]
  MIC: 1 µg/mL (≈ 2.19 µM)
[3]
  MIC: 8 µg/mL (≈ 17.5 µM)
[4]
  MIC: 4 µg/mL (≈ 8.76 µM)

## C[C@H](O)c1nccn1[C@@H](C#Cc1ccc(-c2ccc(O[C@@H]3CCOC[C@H]3O)cc2F)cc1)CO (single isomer, unassigned) [Compound 55]
[1]
  MIC: 4 µg/mL (≈ 8.57 µM)
[2]
  MIC: 1 µg/mL (≈ 2.14 µM)
[3]
  MIC: 8 µg/mL (≈ 17.1 µM)
[4]
  MIC: 4 µg/mL (≈ 8.57 µM)
